# Read-outs that look alike come from different tables or passages of the source.
# Columns and labels:
# [1] = system: differentiated Neuro2A cells; assay: Transfection efficiency (EGFP positive cells) of differentiated Neuro2A; type: cell-based; conditions: LPEI/pDNA N/P=20; chloroquine 25 or 100 μM, PLUS 10 or 20 μL, INF7 10 or 20 μg; 48 h
# MICA and NKG2D = MICA and NKG2D expression in PC3 cells (PCR); type: cell-based, human; conditions: 5 μM SAHA, up to 48 hours
# Procedure: At the end of the incubation, the cells were collected and subjected to PCR analysis. […] The histogram here represented fold change to control after normalization with GAPDH.
# acetylated α-tubulin = assay: Tubulin acetylation immunostaining; type: cell-based; conditions: for tubulin acetylation: differentiated Neuro2A, 2 h, Tubastatin A 10 μM, TSA 50 nM, Paclitaxel 25 nM, SAHA 5 μM, Entinostat 10 μM, Tacedinaline 50 μM
# Procedure: Then, cells were fixed with 4% formaldehyde and co-stained for acetylated α-tubulin and β-tubulin. Confocal images of the individual and merged channels are shown. Bar represents 20 μm. Further, a table is presented, showing the reagents and their respective targets, as well as the concentration at which the experiment was done.
# FIG. 35 depicts micrographs showing the transient effect of Tubastatin A on tubulin acetylation. Neuro2a cells were treated with Tubastatin A (10 μM) for 12 hours. Then, chemicals were removed by replacement with complete media and cells were further incubated for 48 h. At various time points, cells were fixed with 4% formaldehyde and stained for acetylated α-tubulin (Green) and nucleus (Hoechst stain, Blue). Representative images were shown. Bar represents 20 μm.
# Control and 10 μM differentiated Neuro2a Cells were fixed with 4% formaldehyde in 1×PBS for 20 min at room temperature and subsequently permeabilized in 0.5% Triton-X100 in 1×PBS. Then, the samples fixed cells were blocked with normal goat serum (1:10; Dako, Glostrup, Denmark) in 0.1% Triton X-100/1×PBS for 30 min at 37° C. The cells were then incubated with primary antibodies against acetylated α-Tubulin (Sigma Aldrich T7451, 1:200 dilution) or TuJ (R&D Systems MAB1195, 1:50 dilution) in 0.1% TritonX-100/1% BSA/1×PBS at 37° C. for 2 h and washed three times in 1×PBS. […] The cells were washed three times in 1×PBS and mounted. Image acquisition was performed using the Zeiss LSM710 with Axio Observer.Z1 confocal microscope system (Oberkochen, Germany). All images were taken with identical laser and optical settings.
# U251MG cells [2] = assay: Viable cell number after p53 transfection with transfection enhancers; type: cell-based; conditions: for cell death / cell number with p53 transfection: pEGFP-N1-p53, 10 μM Tubastatin A, 5 μM SAHA
# PC3 cells = assay: GFP transfection of PC3 cells (FACS); type: cell-based, human; conditions: PEIMAX/PMAXGFP N/P=20
# Procedure: Next, cells were harvested and GFP expression was analysed by FACS analysis. […] Representative images of the FACS analysis and transfected cells of each condition are presented. Error bar represents the standard error mean (S.E.M.) of n=3.
# human fetal MSC cells [3] = assay: GFP transfection of human fetal MSC; type: cell-based; conditions: PEIMAX/PMAXGFP N/P=10; 100 nM Trichostatin A
# Procedure: Next, cells were harvested and GFP expressions were analysed by FACS analysis. Graph represents % of GFP+ cells. Error bar represents the standard error mean (S.E.M.) of n=3. Statistical significance of transfection efficiencies between cells exposed to polyplexes only and other conditions were obtained using two tailed student's t-test; *, p<0.01. Representative images of the transfected cells of each condition are presented.
# Human fetal MSC cells were transfected with PEIMAX/PMAXGFP complex at N/P=10. […] Three days after transfection, media was replaced with fresh culture media. Bright field and fluorescent images were taken at Day 2, 7, 14 and 21 days post transfection. Representative imaged are presented.
# HDAC3 = HDAC3 (Homo sapiens, UniProt O15379); conditions: Targeted HDAC/Sirtuin: 3; cited from earlier work
# Chain of HDAC3 (O15379 whole entry): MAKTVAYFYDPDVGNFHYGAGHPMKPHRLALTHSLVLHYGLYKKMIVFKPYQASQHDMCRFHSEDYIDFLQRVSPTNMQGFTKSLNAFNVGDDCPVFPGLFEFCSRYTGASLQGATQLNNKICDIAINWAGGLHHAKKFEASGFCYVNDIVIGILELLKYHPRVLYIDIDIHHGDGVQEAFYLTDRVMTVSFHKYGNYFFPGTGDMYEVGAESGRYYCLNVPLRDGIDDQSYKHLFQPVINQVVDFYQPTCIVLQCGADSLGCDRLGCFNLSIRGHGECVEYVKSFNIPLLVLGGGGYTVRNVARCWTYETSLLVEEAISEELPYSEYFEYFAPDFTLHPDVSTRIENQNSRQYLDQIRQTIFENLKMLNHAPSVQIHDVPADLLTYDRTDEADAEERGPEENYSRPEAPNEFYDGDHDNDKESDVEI
# Chain of HDAC3 (Q9Y618 395-489 partner limits assumed): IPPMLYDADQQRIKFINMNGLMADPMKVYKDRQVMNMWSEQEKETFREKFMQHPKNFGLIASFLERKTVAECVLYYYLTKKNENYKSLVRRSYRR
# KLF4 and c-Myc = KLF4 and c-Myc expression in HaF (PCR); type: cell-based, human; conditions: 1 mM VPA, up to 72 h
# Procedure: Fibroblast cells were treated with 1 mM VPA for up to 3 days. At the end of incubation, the cells were collected and subjected to PCR analysis. Cells with no exposure to VPA (3 days) serve as control. Graphs present fold change to control after normalization with GAPDH.
# HDAC1 = HDAC1 (Homo sapiens, UniProt Q13547); conditions: Targeted HDAC/Sirtuin: 1; cited from earlier work
# Chain of HDAC1 (Q13547 whole entry, species assumed): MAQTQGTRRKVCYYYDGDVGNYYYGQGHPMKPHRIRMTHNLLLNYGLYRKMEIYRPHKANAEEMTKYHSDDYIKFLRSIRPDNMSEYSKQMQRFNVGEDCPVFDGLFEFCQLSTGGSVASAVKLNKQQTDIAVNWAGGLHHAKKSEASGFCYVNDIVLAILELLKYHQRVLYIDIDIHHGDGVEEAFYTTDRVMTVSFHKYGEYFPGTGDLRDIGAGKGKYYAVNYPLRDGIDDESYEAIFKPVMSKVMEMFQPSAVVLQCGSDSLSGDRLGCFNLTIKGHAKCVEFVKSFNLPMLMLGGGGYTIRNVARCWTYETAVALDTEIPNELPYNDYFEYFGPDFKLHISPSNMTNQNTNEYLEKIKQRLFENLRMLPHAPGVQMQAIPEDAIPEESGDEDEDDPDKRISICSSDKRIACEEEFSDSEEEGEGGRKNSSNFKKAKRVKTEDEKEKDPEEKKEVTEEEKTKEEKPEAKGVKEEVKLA
# HDAC6 = target: T1, HDAC6 (Homo sapiens, UniProt Q9UBN7); conditions: Targeted HDAC/Sirtuin: 6; cited from earlier work
# T1 sequence (Q9UBN7 1-1215): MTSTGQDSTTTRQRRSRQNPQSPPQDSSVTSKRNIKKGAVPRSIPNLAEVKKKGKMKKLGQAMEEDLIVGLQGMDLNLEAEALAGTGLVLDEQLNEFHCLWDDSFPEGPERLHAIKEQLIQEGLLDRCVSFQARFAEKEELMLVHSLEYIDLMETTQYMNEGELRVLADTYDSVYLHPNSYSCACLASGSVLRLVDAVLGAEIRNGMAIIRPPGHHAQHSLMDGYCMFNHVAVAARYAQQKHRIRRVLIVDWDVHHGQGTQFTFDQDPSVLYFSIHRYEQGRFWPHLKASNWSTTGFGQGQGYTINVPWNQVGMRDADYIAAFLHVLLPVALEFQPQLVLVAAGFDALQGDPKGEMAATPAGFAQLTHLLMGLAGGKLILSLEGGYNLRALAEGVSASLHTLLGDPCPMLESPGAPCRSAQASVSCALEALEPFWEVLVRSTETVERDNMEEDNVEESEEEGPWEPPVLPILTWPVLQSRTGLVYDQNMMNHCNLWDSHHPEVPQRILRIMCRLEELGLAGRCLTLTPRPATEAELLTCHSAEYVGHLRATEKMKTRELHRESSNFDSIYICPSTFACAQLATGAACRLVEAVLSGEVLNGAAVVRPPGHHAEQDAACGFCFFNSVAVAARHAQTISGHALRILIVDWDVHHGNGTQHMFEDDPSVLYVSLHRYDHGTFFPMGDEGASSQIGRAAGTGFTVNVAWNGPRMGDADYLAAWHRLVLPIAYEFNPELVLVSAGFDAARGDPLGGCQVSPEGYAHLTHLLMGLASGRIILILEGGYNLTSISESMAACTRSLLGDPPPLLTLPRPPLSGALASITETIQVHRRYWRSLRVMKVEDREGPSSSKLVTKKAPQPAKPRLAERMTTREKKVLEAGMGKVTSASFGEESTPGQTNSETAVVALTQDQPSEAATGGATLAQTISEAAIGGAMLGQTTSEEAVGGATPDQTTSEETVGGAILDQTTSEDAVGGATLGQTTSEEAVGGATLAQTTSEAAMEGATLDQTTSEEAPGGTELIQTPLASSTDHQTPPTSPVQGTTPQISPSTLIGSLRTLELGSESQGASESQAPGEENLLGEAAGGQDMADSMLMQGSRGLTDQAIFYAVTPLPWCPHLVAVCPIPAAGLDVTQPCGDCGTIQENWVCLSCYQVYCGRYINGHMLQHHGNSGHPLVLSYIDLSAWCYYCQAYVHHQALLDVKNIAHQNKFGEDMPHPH
# Neuro2A cells = type: cell-based; conditions: for cell death at the concentrations used: Dynasore 30 μg/ml, Filipin III 5 μg/ml, Rottlerin […]; for uptake of polyplex: inhibitor 45 min prior transfection, LPEI/pDNA N/P=20, 4 h
# Procedure: A. Native and differentiated (10 μM RA) Neuro2a was treated with 2.5 μg/ml rottlerin, 5 μg/ml Filipin III or 30 μg/ml Dynasore for 45 min prior transfection. DMSO/0.5% FBS was used as control for treatment. After transfection with polyplex (N/P=20), cells were incubated at 4° C. or 37° C. for 4 h. Extracellular pDNA was removed by pAA/DNAse and cells were trypsinized. Then, samples were treated with pAA/urea lysis buffer and the absolute copy number of pDNA was quantified by qPCR. In similar experiments, native Neuro2A cells were incubated at 37° C. for 24 h post transfection. B. Representative fluorescent images (bottom rows), acquired 48 h post transfection. C. Percentage of cells expressing EGFP was counted. Significant differences in transfection efficiencies were calculated using the two tailed student's t-test. The data shown were the mean±s.e.m., n=4. *, p<0.05; **, p<0.005.
# For studies using inhibitors, cells were incubated with Dynasore (30 μg/ml), Filipin III (5 μg/ml) or Rottlerin (2.5 μg/ml) in DMEM (0.5% FBS) for 45 min prior transfection. Cells were further incubated in DMEM (0.5% FBS) containing corresponding inhibitors post transfection.
# To quantify DNA internalized by the cells, the supernatant was removed and the cells were washed once with 1×PBS and incubated in DMEM containing pAA/DNAse for 2 h at 4° C. Next, the cells were trypsinized and treated with pAA/urea lysis buffer. Efficiency of DNA release by pAA/urea lysis buffer and pAA/DNase was evaluated (Supplementary FIGS. 15 & 18). […] Primers specific for EGFP, forward primer (5′-3′, […]; SEQ ID NO:1) and reverse primer (5′-3′, […]; SEQ ID NO:2) were used. PCR quantification of the pDNA was performed as previously described (Yoong, L.F., G. Wan, and H.P. Too. Mol Cell Neurosci, 2009. 41(4): p. 464-73). The absolute amount of pDNA was determined using plasmid standards by interpolation.
# human fetal MSC cells [4] = assay: BMP2 expression in human MSC (qPCR); type: cell-based; conditions: PEIMAX/PMAXGFP-BMP2 N/P=10; 3 day post transfection; 5 μM Tubastatin A, 150 nM TSA
# U251MG cells [5] = assay: GFP transfection of U251MG cells (FACS); type: cell-based; conditions: PEIMAX/PMAXGFP N/P=10; 10 μM Tubastatin A, 5 μM SAHA
# Procedure: Furthermore, representative images of the FACS analysis and transfected cells for each conditions are presented. Error bar represents the standard error mean (S.E.M.) of n=3. […] Next, cells were harvested and GFP expressions were analysed by FACS analysis.
# [6] = differentiated (10 μM RA) Neuro2A
molecule,measurement,setting,value
CCN(CC)CCCC(C)Nc1ccnc2cc(Cl)ccc12 (stereo not shown) [chloroquine],"enhancement of transfection, reagent added post-transfection",[1],did not show cumulative enhancement of transfection
"O=C(CCCCCCC(=O)Nc1ccccc1)NO [SAHA, vorinostat]",expression of MICA and NKG2D,MICA and NKG2D,induced up-regulation of MICA and NKG2D
same,tubulin acetylation,acetylated α-tubulin,markedly enhanced tubulin acetylation
same,cell number on increasing duration of incubation with SAHA,"U251MG cells [2]; p53, DOPE/CHEMS, 5 μM SAHA for 48, 72 and 96 h",did not further reduce the cell number
same,cell death / cell number with p53 transfection,U251MG cells [2],resulted in more cell death
CC(/C=C/C(=O)NO)=C\[C@@H](C)C(=O)c1ccc(N(C)C)cc1 [Trichostatin A],enhancement of transfection,PC3 cells,significant enhancement of transfection
same,enhancement of transfection,human fetal MSC cells [3],significant enhancement of transfection
same,tubulin acetylation,acetylated α-tubulin,markedly enhanced tubulin acetylation
MC-1293,IC50,HDAC3,288 µM
CC(=O)Nc1ccc(C(=O)Nc2ccccc2N)cc1 [Tacedinaline],tubulin acetylation,acetylated α-tubulin,not
CCCC(CCC)C(=O)O [Valproic Acid],expressions of cMyc and KLF4,KLF4 and c-Myc,Gradual increment
same,IC50,HDAC1,442 µM
same,IC50,HDAC6,11800 µM
C/C=C1\NC(=O)[C@H]2CSSCC/C=C/[C@H](CC(=O)N[C@H](C(C)C)C(=O)N2)OC(=O)[C@H](C(C)C)NC1=O [Romidepsin],IC50,HDAC1,0.08 µM
CCCCC[C@@H](O)[C@H]1C(=O)O[C@H](C)[C@@H](O)/C=C/C=C/C=C/C=C/C=C(\C)[C@@H](O)C[C@H](O)C[C@H](O)C[C@H](O)C[C@H](O)C[C@H](O)C[C@@H]1O [Filipin III],cell death at the concentrations used,Neuro2A cells,no evidence of cell death
same,uptake of polyplex,Neuro2A cells; [6],did not affect polyplex uptake
same,uptake of polyplex,Neuro2A cells; native Neuro2A,did not affect polyplex uptake
CC(=O)O[C@H]1C(=O)[C@@]2(C)[C@H]([C@H](OC(=O)c3ccccc3)[C@]3(O)C[C@H](OC(=O)[C@H](O)[C@@H](NC(=O)c4ccccc4)c4ccccc4)C(C)=C1C3(C)C)[C@]1(OC(C)=O)CO[C@@H]1C[C@@H]2O [paclitaxel],tubulin acetylation,acetylated α-tubulin,markedly enhanced tubulin acetylation
O=C(N/N=C/c1ccc(O)c(O)c1)c1cc2ccccc2cc1O [Dynasore],uptake of polyplex,Neuro2A cells; [6],significantly inhibited the uptake of polyplex
same,uptake of polyplex,Neuro2A cells; native Neuro2A,significantly inhibited the uptake of polyplex
O=C(/C=C/c1cccc(S(=O)(=O)Nc2ccccc2)c1)NO [Belinostat],IC50,HDAC6,0.41 µM
CC(=O)c1c(O)c(C)c(O)c(Cc2c(O)c3c(c(C(=O)/C=C/c4ccccc4)c2O)OC(C)(C)C=C3)c1O [Rottlerin],cell death at the concentrations used,Neuro2A cells,no evidence of cell death
same,uptake of polyplex,Neuro2A cells; [6],not in differentiated cells
same,uptake of polyplex,Neuro2A cells; native Neuro2A,reduced the uptake of polyplex significantly
CN1CCc2c(c3ccccc3n2Cc2ccc(C(=O)NO)cc2)C1 [Tubastatin A],enhancement of transfection,PC3 cells,significant enhancement of transfection
same,"BMP2 expression, fold over the negative control",human fetal MSC cells [4],"~20,000 fold"
same,transfection efficiency,U251MG cells [5],significant enhancement in transfection efficiency
same,duration of effect on tubulin acetylation,"acetylated α-tubulin; Neuro2a, Tubastatin A 10 μM for 12 hours then washout",< 24 h
same,tubulin acetylation,acetylated α-tubulin,markedly enhanced tubulin acetylation
same,cell death / cell number with p53 transfection,U251MG cells [2],did not result in greater reduction of cell number
Nc1ccccc1NC(=O)c1ccc(CNC(=O)OCc2cccnc2)cc1 [Entinostat],tubulin acetylation,acetylated α-tubulin,not

# Source: patent publication US10100331B2, “Reagent for gene-drug therapeutics” (Agency for Science, Technology and Research, priority 2012, dated 2018)
